Measurements reported in patent publication EP0313846B1, “Method for controlling chronic respiratory disease, and necrotic enteritis in avian species” (AMERICAN CYANAMID COMPANY, priority 1987, dated 1989).
Converted amounts (≈) assume the structure as drawn. Where two headings read alike, the source gives them in different places.

What was measured:
[1] = tested on: Mycoplasma gallisepticum; assay: Treatment of Mycoplasma gallisepticum caused chronic respiratory disease in poultry; assay type: in vivo; details: for Final Mean Body Weight (g) of Survivors / Overall % Mortality / Overall Feed-to-Gain: 7 days pre- and 7 days postchallenge; for Final Mean Body Weight (g) of Survivors / Overall % Mortality / Overall Feed-to-Gain / Mean Air Sac Lesion Scores: M. gallisepticum challenged birds; for Mean Air Sac Lesion Scores: score 0-3
Experimental: This study is conducted to evaluate the efficacy of antibiotic LL-E19020α against Mycoplasma gallisepticum caused chronic respiratory disease in poultry. The antibiotic is fed continuously at 10 and 50 g/ton for 7 days pre- and 7 days postchallenge. Birds similarly fed a diet containing 100 g/ton chlortetracycline serve as a positive control group. Infected and noninfected, nonmedicated control groups are also included. After 7 days on respective treatment diets, birds are challenged with M. gallisepticum (MG) into the right and left post-thoracic air sacs. The air sacs are cultured for the presence of Mycoplasma from all birds dying postchallenge. The air sacs of all birds are scored based on gross lesions upon necropsy at death or at study end. Survivors at study end are bled prior to necropsy for Mycoplasma gallisepticum serology testing. Body weight and feed intake measurements are made at specified intervals during the study.

[2] = tested on: Mycoplasma gallisepticum "R"; assay: Minimum inhibitory concentration assay for Mycoplasma gallisepticum (microdilution, Table VI); assay type: cell-based; details: Mycoplasmoides gallisepticum
Experimental: • 1. […] Both cultures are incubated at 37°C. […] Appropriate solvent controls are also included. • 4.

[3] = tested on: Treponema hyodysenteriae; assay: T. hyodysenteriae disk test (primary in vitro disk diffusion test); assay type: cell-based; details: disks soaked in 2.5 mg/ml solution, zones of inhibited hemolysis
[4] = tested on: Treponema hyodysenteriae; assay: Minimum inhibitory concentration by microdilution (Table VI); assay type: cell-based
[5] = tested on: Bordetella bronchiseptica; assay: Minimum inhibitory concentration by agar dilution (Table V); assay type: cell-based; details: Bordetella bronchiseptica (4 strains tested)
[6] = tested on: Streptococcus pyogenes C203; assay: In vivo antibacterial activity in infected mice (Table III); design: species or system female CD-1 mice; details: S. pyogenes C203, mice, 30 minutes before infection
[7] = tested on: Pasteurella multocida 31081B; assay: Pasteurella disk test (primary in vitro disk diffusion test); assay type: cell-based; details: disks soaked in 2.5 mg/ml solution of test compound, zones of inhibition
Experimental: (§1) Zones of inhibition are recorded.

[8] = tested on: Pasteurella haemolytica 30660; assay: as above; assay type: cell-based; details: disks soaked in 2.5 mg/ml solution of test compound, zones of inhibition
Experimental: as §1

[9] = tested on: Streptococcus pyogenes; assay: Minimum inhibitory concentration by agar dilution (Table V); assay type: cell-based; details: Streptococcus pyogenes (2 strains tested)
[10] = tested on: Pasteurella haemolytica; assay: as above; assay type: cell-based; details: Pasteurella haemolytica (3 strains tested)
[11] = tested on: Escherichia coli; assay: as above; assay type: cell-based; details: Escherichia coli (2 strains tested)
[12] = tested on: Clostridium perfringens ATCC 13124; assay type: cell-based; details: 18 hours incubation
[13] = tested on: Streptococcus faecalis; assay: Minimum inhibitory concentration by agar dilution (Table V); assay type: cell-based; details: Streptococcus faecalis (1 strain tested)
[14] = tested on: Staphylococcus aureus; assay: as above; assay type: cell-based; details: Staphylococcus aureus (7 strains tested)
[15] = tested on: Streptococcus uberis; assay: as above; assay type: cell-based; details: Streptococcus uberis (1 strain tested)
[16] = tested on: Streptococcus agalactiae; assay: as above; assay type: cell-based; details: Streptococcus agalactiae (4 strains tested)
[17] = tested on: Clostridium perfringens type C; assay type: in vivo, broiler chicks; details: infected chicks, treatment mean; for Lesion Scores: intestinal lesion score 0-4, day 19
[18] = tested on: Clostridium difficile ATCC 17858; assay: In vitro antibacterial activity, standard agar dilution method (Table II); assay type: cell-based; details: 18 hours incubation
Experimental: (§2) The in vitro antibacterial activity of LL-E19020α and β was determined against a spectrum of gram-positive and gram-negative bacteria by a standard agar dilution method. Mueller-Hinton agar containing 5% sheep blood and two-fold decreasing concentrations of either LL-E19020α or β were poured into petri dishes. The agar surfaces were inoculated with 1 to 5x10⁴ colony forming units of bacteria by means of the Steers replicating device. The lowest concentration of antibiotic that inhibited growth of a bacterial strain after 18 hours incubation was recorded as the minimal inhibitory concentration for that strain.

[19] = tested on: Peptococcus magnus; assay: as above; assay type: cell-based; details: 18 hours incubation
Experimental: as §2

[20] = tested on: Streptococcus sp. (β-hemolytic); assay: as above; assay type: cell-based; details: 18 hours incubation
Experimental: as §2

[21] = tested on: Streptococcus pneumoniae; assay: as above; assay type: cell-based; details: 18 hours incubation
Experimental: as §2

[22] = tested on: Salmonella choleraesuis; assay: Minimum inhibitory concentration by agar dilution (Table V); assay type: cell-based; details: Salmonella choleraesuis (2 strains tested)
[23] = tested on: Staphylococcus aureus Smith; assay: In vivo antibacterial activity in infected mice (Table III); design: species or system female CD-1 mice; details: S. aureus Smith, 30 minutes before infection
[24] = 100 g/ton in feed (positive control)
[25] = Treponema hyodysenteriae B78 (ATCC 27164)
[26] = Treponema hyodysenteriae B204 (ATCC 31212)
[27] = 50 grams per ton of feed, Mycoplasma gallisepticum infected chicks
[28] = single subcutaneous dose 4 mg/kg
[29] = single subcutaneous dose 16 mg/kg
[30] = single subcutaneous dose 64 mg/kg

CN(C)[C@@H]1C(O)=C(C(N)=O)C(=O)[C@@]2(O)C(O)=C3C(=O)c4c(O)ccc(Cl)c4[C@@](C)(O)[C@H]3C[C@@H]12 [CTC, Chlortetracycline, reference compound]
Final Mean Body Weight (g) of Survivors [1, 24]: 398 g | Overall % Mortality [1, 24]: 25.0% | Overall Feed-to-Gain [1, 24]: 1.83 | Mean Air Sac Lesion Scores [1, 24]: 1.88 | MIC [2]: 0.5 µg/mL (≈ 1.04 µM)

C/C=C\C=C\[C@@H]1O[C@](O)([C@H](CO[C@H]2C[C@@H](OC)[C@@H](O[C@@H]3C[C@@H](OC)[C@@H](O[C@H]4C[C@H](OC)[C@H](O)[C@H](C)O4)[C@H](C)O3)[C@@H](C)O2)C(=O)NC/C=C/C=C(\C)[C@@H](OC)[C@H](C)[C@H]2C[C@H](O)[C@H](/C=C/C=C/C=C/C(=O)O)O2)[C@H](OC(=O)Cc2ccccc2)[C@H](O)C1(C)C [LL-E19020α]
ZONE SIZE [3, 25]: 0 mm | ZONE SIZE [3, 26]: 15 mm | MIC [4, 25]: 1 µg/mL (≈ 0.815 µM) | MIC [4, 26]: 1 µg/mL (≈ 0.815 µM) | Final Mean Body Weight (g) of Survivors ([1]; 10 g/ton in feed): 336 g | Overall % Mortality ([1]; 10 g/ton in feed): 41.3% | Overall Feed-to-Gain ([1]; 10 g/ton in feed): 1.88 | Mean Air Sac Lesion Scores ([1]; 10 g/ton in feed): 2.04 | Final Mean Body Weight (g) of Survivors ([1]; 50 g/ton in feed): 349 g | Overall % Mortality ([1]; 50 g/ton in feed): 36.3% | Overall Feed-to-Gain ([1]; 50 g/ton in feed): 1.84 | Mean Air Sac Lesion Scores ([1]; 50 g/ton in feed): 2.11 | feed to gain ratios compared with infected nonmedicated chicks [1, 27]: better feed to gain ratios | mortality compared with infected nonmedicated chicks [1, 27]: less mortality | weight gain compared with infected nonmedicated chicks [1, 27]: better weight gain | MIC [5]: >256 µg/mL | Survival Ratios 7 Days After Infection [6, 28]: 2/5 | Survival Ratios 7 Days After Infection ([6]; single subcutaneous dose 8 mg/kg): 4/5 | Survival Ratios 7 Days After Infection [6, 29]: 5/5 | Survival Ratios 7 Days After Infection ([6]; single subcutaneous dose 32 mg/kg): 5/5 | Survival Ratios 7 Days After Infection [6, 30]: 5/5 | ZONE SIZE [7]: 15 mm | ZONE SIZE [8]: 13 mm | MIC [9]: 2 µg/mL (≈ 1.63 µM) | MIC [10]: 16 µg/mL (≈ 13 µM) | MIC [11]: ≧256 µg/ml | Minimal Inhibitory Concentration [12]: 16 µg/mL | MIC [13]: 8 µg/mL (≈ 6.52 µM) | MIC [14]: ≧256 µg/ml | MIC [15]: 8 µg/mL (≈ 6.52 µM) | MIC [16]: 2 to 8 µg/mL | % Mortality ([17]; 5 ppm): 2.5% | Feed/Gain ([17]; 5 ppm): 1.97 | Final Weight ([17]; 5 ppm): 639.2 | Lesion Scores ([17]; 5 ppm): 0.35 | % Mortality ([17]; 50 ppm): 2.5% | Feed/Gain ([17]; 50 ppm): 1.80 | Final Weight ([17]; 50 ppm): 699.4 | Lesion Scores ([17]; 50 ppm): 0.38 | Minimal Inhibitory Concentration [18]: 4 µg/mL | Minimal Inhibitory Concentration ([19]; Peptococcus magnus ATCC 14956): 0.12 µg/mL | Minimal Inhibitory Concentration ([19]; Peptococcus magnus ATCC 29328): 0.12 µg/mL | Minimal Inhibitory Concentration ([20]; Streptococcus sp. (β-hemolytic) C203): 0.5 µg/mL | Minimal Inhibitory Concentration ([20]; Streptococcus sp. (β-hemolytic) VGH-84-60): 0.25 µg/mL | Minimal Inhibitory Concentration ([20]; Streptococcus sp. (β-hemolytic) VGH-84-61): 1 µg/mL | Minimal Inhibitory Concentration ([20]; Streptococcus sp. (β-hemolytic) VGH-84-62): 1 µg/mL | Minimal Inhibitory Concentration ([20]; Streptococcus sp. (β-hemolytic) VGH-84-63): 0.12 µg/mL | Minimal Inhibitory Concentration ([20]; Streptococcus sp. (β-hemolytic) VGH-84-64): 0.12 µg/mL | Minimal Inhibitory Concentration ([21]; Streptococcus pneumoniae SVI): 1 µg/mL | Minimal Inhibitory Concentration ([21]; Streptococcus pneumoniae VGH-84-56): 1 µg/mL | Minimal Inhibitory Concentration ([21]; Streptococcus pneumoniae VGH-84-57): 2 µg/mL | Minimal Inhibitory Concentration ([21]; Streptococcus pneumoniae VGH-84-58): 0.25 µg/mL | Minimal Inhibitory Concentration ([21]; Streptococcus pneumoniae VGH-84-59): 0.25 µg/mL | MIC [22]: >256 µg/mL | Survival Ratios 7 Days After Infection [23, 28]: 2/5 | Survival Ratios 7 Days After Infection [23, 29]: 3/5 | Survival Ratios 7 Days After Infection [23, 30]: 3/5 | Survival Ratios 7 Days After Infection ([23]; single subcutaneous dose 256 mg/kg): 3/5
